Data from PubChem BioAssay AID624118 (National Center for Advancing Translational Sciences (NCATS), 2012).

Target: Cytochrome P450 3A4 (Homo sapiens) (UniProt P08684)
Assay: qHTS Assay for Inhibitors of Bacillus subtilis Sfp phosphopantetheinyl transferase (PPTase): CYP 3A4
Conditions: CYP3A4 inhibition, 3 uM, ADME profiling; active compounds read high
From the text: The covalent attachment of a phosphopantetheinyl (4'-PP) arm to a variety of synthases and other proteins is a key posttranslational protein modification. The 4'-PP is installed on the proteins post-translationally from coenzyme A (CoA) on a conserved serine residue by action of phosphopantetheinyl transferase (PPTase) enzymes. Phosphopantetheinylation is essential for synthase activity, and removal of the PPTase gene precludes natural product synthesis in microorganisms, or in the case of fatty acid biosynthesis, renders the organism unviable. PPTase enzymes belong to a distinct structural superfamily. Within bacteria, these enzymes are grouped into two classes based upon primary structure, the AcpS-Type and Sfp-Type PPTases.
Sfp-type PPTases, corresponding to an activator of surfactin production in Bacillus subtilis, are responsible for modifying type I polyketide and nonribosomal peptide synthases of prokaryotes. Sfp-type PPTases are responsible for the activation of a variety of pathogen-associated virulence factors. Among these compounds are toxins such as mycolactone from Mycobacterium ulcerans, siderophores such as vibriobactin from Vibrio cholerae or mycobactin from Mycobacterium tuberculosis, as well as the mycolic acids which form the waxy cell wall of Mycobacteria. The biosyntheses of these natural products are considered attractive targets for drug design. […]

Cytochrome P450 3A4 (Homo sapiens), sequence (P08684 whole entry, looked up): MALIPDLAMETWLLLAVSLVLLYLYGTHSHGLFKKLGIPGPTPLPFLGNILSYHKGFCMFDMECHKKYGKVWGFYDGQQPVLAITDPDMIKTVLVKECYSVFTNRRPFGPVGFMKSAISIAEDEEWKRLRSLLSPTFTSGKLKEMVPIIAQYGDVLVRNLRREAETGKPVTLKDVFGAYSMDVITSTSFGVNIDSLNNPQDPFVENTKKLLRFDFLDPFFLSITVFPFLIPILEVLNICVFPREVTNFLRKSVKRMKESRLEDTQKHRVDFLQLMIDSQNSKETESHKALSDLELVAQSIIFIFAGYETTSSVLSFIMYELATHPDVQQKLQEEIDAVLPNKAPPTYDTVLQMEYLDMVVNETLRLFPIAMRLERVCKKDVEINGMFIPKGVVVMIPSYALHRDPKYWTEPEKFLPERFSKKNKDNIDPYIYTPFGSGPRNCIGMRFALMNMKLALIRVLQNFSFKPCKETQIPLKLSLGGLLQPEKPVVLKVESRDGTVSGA

Structure (SMILES): COc1ccnc(NC(=S)N2CCN(c3ncc(C(F)(F)F)cc3Cl)CC2)c1
- inhibition: 20%
